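Compound exposure: 48 hours, 5 concentrations, 96-well plates. TGI: concentration producing complete growth inhibition.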

In PubChem BioAssay (NCI) one finds TGI data, which are given here for one compound.

Some test systems named below: A498 renal; DLD-1 colon; DMS 114 small cell lung; DMS 273 small cell lung; HOP-18 NSCLC; HOP-62 NSCLC; KM20L2 colon; LXFL 529 NSCLC; M19-MEL melanoma; NCI-H460 lung; OVCAR-5 ovarian; SNB-78 CNS; SR leukemia; XF 498 CNS.
What all share (experiment): growth of human tumour cells (NCI), 48 h

For `CC(=O)OC1CCCn2c1nc1c2C(=O)C(C)=C(N2CC2)C1=O` (centres undefined), the TGI in the test on A498 renal was determined as 360 nM; with DLD-1 colon, 10900 nM; in the test on DMS 114 small cell lung, 2380 nM; in the test with DMS 273 small cell lung, 552 nM; with HOP-18 NSCLC it was 1110 nM; in the test on HOP-62 NSCLC it was 625 nM. Besides, the TGI in the test with KM20L2 colon amounted to 1200 nM; in the test with LXFL 529 NSCLC, 1660 nM; with M19-MEL melanoma, 1630 nM; in the test with NCI-H460 lung, 296 nM; with OVCAR-5 ovarian it was 1320 nM; with SNB-78 CNS it was 2880 nM. Further, the TGI with SR leukemia is over 100000 nM; in the test with XF 498 CNS it was 685 nM.
